pEC50, pIC50: −log10 of the molar value.
Columns and labels:
IRAK4 = IRAK4 (Homo sapiens (Human), UniProt Q9NWZ3); experiment: IRAK4 Inhibition Assay; format: biochemical; conditions: ATP 500 μM; IRAK4 0.6 nM
How it was run: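 Enzyme 0.6 nM, ATP 500 μM, FL-peptide 1.5 μM, DMSO 1.6%; HEPES pH 7.2/MgCl2/Brij 35/DTT buffer. RT, 60 min, EDTA stop. Mobility-shift product/substrate ratio; % inhib vs no-enzyme and vehicle controls.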

[1] = system: Human whole blood stimulated with a TLR2 agonist (lipoteichoic acid), IL-6 levels; experiment: IRAK4 Whole Blood Assay; format: cell-based; conditions: lipoteichoic acid 10 μg/mL
Experimental: Human whole blood containing the anti-coagulant ACD-A was plated in 384-well plate (25 μL/well) and incubated with compounds for 60 minutes at 37° C. in a 5% CO2 incubator. The blood was stimulated with a TLR2 agonist, 10 μg/mL final concentration of lipoteichoic acid (Invivogen, San Diego, Calif.) in 25 μL RPMI (Gibco) for 5 hours in a 5% CO2 incubator. At the end of the incubation, plates were centrifuged at 2300 rpm for 5 minutes. Supernatants were harvested and analyzed for IL-6 levels by Flow Cytometry beads assay (BD Biosciences, San Jose, Calif.).

IRAK4, sequence (Q9NWZ3 whole entry, species assumed): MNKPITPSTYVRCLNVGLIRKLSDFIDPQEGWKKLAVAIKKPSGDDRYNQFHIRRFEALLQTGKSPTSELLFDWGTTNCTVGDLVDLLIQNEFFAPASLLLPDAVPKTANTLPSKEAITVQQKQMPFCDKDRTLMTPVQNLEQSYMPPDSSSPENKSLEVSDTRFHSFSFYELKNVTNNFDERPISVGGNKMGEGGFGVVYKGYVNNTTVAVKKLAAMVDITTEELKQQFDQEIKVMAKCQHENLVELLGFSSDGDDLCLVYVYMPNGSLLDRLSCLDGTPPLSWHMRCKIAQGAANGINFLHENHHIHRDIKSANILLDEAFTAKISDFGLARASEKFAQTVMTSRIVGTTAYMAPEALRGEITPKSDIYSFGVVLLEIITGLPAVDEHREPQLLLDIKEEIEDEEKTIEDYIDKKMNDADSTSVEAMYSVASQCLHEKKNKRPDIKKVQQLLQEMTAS

Row | pIC50 (IRAK4) | pEC50 ([1]; Homo sapiens) | pEC50 [1] | Compound
1 | 8.00 | 6.28 | – | CC(C)Nc1cc(-n2ncc3cc(C#N)cnc32)ncc1-c1cn([C@H]2CCN(C(=O)c3ccccn3)C[C@H]2O)nn1 [Example 183, 1-(5-(1-((3R,4S)-3-hydroxy-1-picolinoylpiperidin-4-yl)-1H-1,2,3-triazol-4-yl)-4-(isopropylamino)pyridin-2-yl)-1H-pyrazolo[3,4-b]pyridine-5-carbonitrile]
2 | 8.10 | 5.98 | – | CC(C)Nc1cc(-n2ncc3cc(C#N)cnc32)ncc1-c1cn([C@H]2CCN(C(=O)c3ccncc3)C[C@H]2O)nn1 [Example 185, 1-(5-(1-((3R,4S)-3-hydroxy-1-isonicotinoylpiperidin-4-yl)-1H-1,2,3-triazol-4-yl)-4-(isopropylamino)pyridin-2-yl)-1H-pyrazolo[3,4-b]pyridine-5-carbonitrile]
3 | 7.80 | 5.75 | – | CC(C)Nc1cc(-n2ncc3cc(C#N)cnc32)ncc1-c1cn([C@@H]2CCNC[C@@H]2O)nn1 [Example 186, 1-(5-(1-((3S,4R)-3-hydroxypiperidin-4-yl)-1H-1,2,3-triazol-4-yl)-4-(isopropylamino)pyridin-2-yl)-1H-pyrazolo[3,4-b]pyridine-5-carbonitrile]
4 | 8.22 | 6.21 | – | CC(=O)N1CCN(C(=O)Cn2cc(-c3cnc(-n4ncc5cc(C#N)cnc54)cc3NC(C)C)nn2)CC1 [Example 194, 1-(5-(1-(2-(4-acetylpiperazin-1-yl)-2-oxoethyl)-1H-1,2,3-triazol-4-yl)-4-(isopropylamino)pyridin-2-yl)-1H-pyrazolo[3,4-b]pyridine-5-carbonitrile]
5 | 8.52 | 5.85 | – | CC(C)Nc1cc(-n2ncc3cc(C#N)cnc32)ncc1-c1cn([C@H]2CC[C@H](NC(=O)OC(C)(C)C)CC2)nn1 [Example 212, tert-butyl ((trans)-4-(4-(6-(5-cyano-1H-pyrazolo[3,4-b]pyridin-1-yl)-4-(isopropylamino)pyridin-3-yl)-1H-1,2,3-triazol-1-yl)cyclohexyl)carbamate]
6 | 7.92 | 5.66 | – | CC(C)Cn1cnc(-c2cnc(-n3ncc4cc(C#N)cnc43)cc2NC(C)C)c1 [Example 221, 1-(5-(1-isobutyl-1H-imidazol-4-yl)-4-(isopropylamino)pyridin-2-yl)-1H-pyrazolo[3,4-b]pyridine-5-carbonitrile]
7 | 7.77 | 5.25 | – | CC(C)Nc1cc(-n2ncc3cc(C#N)cnc32)ncc1-c1cn(C(C)C)cn1 [Example 225, 1-(5-(1-isopropyl-1H-imidazol-4-yl)-4-(isopropylamino)pyridin-2-yl)-1H-pyrazolo[3,4-b]pyridine-5-carbonitrile]
8 | 7.80 | 5.83 | – | CC(C)Nc1cc(-n2ncc3cc(C#N)cnc32)ncc1-c1cn(CC(F)F)cn1 [Example 226, 1-(5-(1-(2,2-difluoroethyl)-1H-imidazol-4-yl)-4-(isopropylamino)pyridin-2-yl)-1H-pyrazolo[3,4-b]pyridine-5-carbonitrile]
9 | 8.00 | 6.23 | – | CC(C)Nc1cc(-n2ncc3cc(C#N)cnc32)ncc1-c1cn(CC2CC2)cn1 [Example 229, 1-(5-(1-(cyclopropylmethyl)-1H-imidazol-4-yl)-4-(isopropylamino)pyridin-2-yl)-1H-pyrazolo[3,4-b]pyridine-5-carbonitrile]

The remaining lines, values behind:

Row | Compound | pIC50 (IRAK4) | pEC50 ([1]; Homo sapiens) | pEC50 [1]
10 | CC(C)Nc1cc(-n2ncc3cc(C#N)cnc32)ncc1-c1cn(C2CN(C(=O)C(C)(C)C)C2)nn1 [Example 146, 1-(4-(isopropylamino)-5-(1-(1-pivaloylazetidin-3-yl)-1H-1,2,3-triazol-4-yl)pyridin-2-yl)-1H-pyrazolo[3,4-b]pyridine-5-carbonitrile] | 8.52 | 5.96 | –
11 | CC(C)Nc1cc(-n2ncc3cc(C#N)cnc32)ncc1-c1cn(C2CN(c3ncccn3)C2)nn1 [Example 147, 1-(4-(isopropylamino)-5-(1-(1-(pyrimidin-2-yl)azetidin-3-yl)-1H-1,2,3-triazol-4-yl)pyridin-2-yl)-1H-pyrazolo[3,4-b]pyridine-5-carbonitrile] | 8.30 | 5.97 | –
12 | Cc1nnc(N2CC(n3cc(-c4cnc(-n5ncc6cc(C#N)cnc65)cc4NC(C)C)nn3)C2)o1 [Example 148, 1-(4-(isopropylamino)-5-(1-(1-(5-methyl-1,3,4-oxadiazol-2-yl)azetidin-3-yl)-1H-1,2,3-triazol-4-yl)pyridin-2-yl)-1H-pyrazolo[3,4-b]pyridine-5-carbonitrile] | 8.30 | 5.72 | –
13 | CCN1CC(n2cc(-c3cnc(-n4ncc5cc(C#N)cnc54)cc3NC(C)C)nn2)C1 [Example 149, 1-(5-(1-(1-ethylazetidin-3-yl)-1H-1,2,3-triazol-4-yl)-4-(isopropylamino)pyridin-2-yl)-1H-pyrazolo[3,4-b]pyridine-5-carbonitrile] | 8.70 | 6.14 | –
14 | CC(C)Nc1cc(-n2ncc3cc(C#N)cnc32)ncc1-c1cn(C2CN(C)C2)nn1 [Example 151, 1-(4-(isopropylamino)-5-(1-(1-methylazetidin-3-yl)-1H-1,2,3-triazol-4-yl)pyridin-2-yl)-1H-pyrazolo[3,4-b]pyridine-5-carbonitrile, 2TFA] | 8.70 | 5.79 | –
15 | CC(=O)N1CCC(n2cc(-c3cnc(-n4ncc5cc(C#N)cnc54)cc3NC(C)C)nn2)C1 (stereo not shown) [Example 158, 1-(5-(1-(1-acetylpyrrolidin-3-yl)-1H-1,2,3-triazol-4-yl)-4-(isopropylamino)pyridin-2-yl)-1H-pyrazolo[3,4-b]pyridine-5-carbonitrile] | 8.70 | – | 6.28
16 | CC(C)Nc1cc(-n2ncc3cc(C#N)cnc32)ncc1-c1cn(C)nn1 [Example 164, 1-(4-(isopropylamino)-5-(1-methyl-1H-1,2,3-triazol-4-yl)pyridin-2-yl)-1H-pyrazolo[3,4-b]pyridine-5-carbonitrile] | 8.10 | 6.22 | –
17 | CC(C)Nc1cc(-n2ncc3cc(C#N)cnc32)ncc1-c1cn(C[C@H](N)Cc2ccccc2)nn1 [Example 169, (R)-1-(5-(1-(2-amino-3-phenylpropyl)-1H-1,2,3-triazol-4-yl)-4-(isopropylamino)pyridin-2-yl)-1H-pyrazolo[3,4-b]pyridine-5-carbonitrile] | 7.77 | 5.67 | –
18 | CC(C)Nc1cc(-n2ncc3cc(C#N)cnc32)ncc1-c1cn(CCCN)nn1 [Example 171, 1-(5-(1-(3-aminopropyl)-1H-1,2,3-triazol-4-yl)-4-(isopropylamino)pyridin-2-yl)-1H-pyrazolo[3,4-b]pyridine-5-carbonitrile] | 8.22 | 5.94 | –
19 | CC(C)Nc1cc(-n2ncc3cc(C#N)cnc32)ncc1-c1cn([C@H]2CCN(C(=O)OC(C)(C)C)C[C@H]2O)nn1 [Example 176, (3R,4S)-tert-butyl 4-(4-(6-(5-cyano-1H-pyrazolo[3,4-b]pyridin-1-yl)-4-(isopropylamino)pyridin-3-yl)-1H-1,2,3-triazol-1-yl)-3-hydroxypiperidine-1-carboxylate] | 7.89 | 5.68 | –
20 | CC(C)Nc1cc(-n2ncc3cc(C#N)cnc32)ncc1-c1cn([C@H]2CCN(S(C)(=O)=O)C[C@H]2OS(C)(=O)=O)nn1 [Example 182, (3R,4S)-4-(4-(6-(5-cyano-1H-pyrazolo[3,4-b]pyridin-1-yl)-4-(isopropylamino)pyridin-3-yl)-1H-1,2,3-triazol-1-yl)-1-(methylsulfonyl)piperidin-3-yl methanesulfonate] | 8.30 | 6.12 | –
